PubChem BioAssay (NCI)
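In this assay, cells in 96-well plates receive the compound at five concentrations for 48 hours. Endpoints are linearly interpolated between the surrounding concentrations. The concentration for 50% growth inhibition is given as GI50. TGI denotes the concentration required for complete inhibition of growth.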

How the values were obtained:
Experiment in all cases: DTP human tumour cell line panel, 48 h
MALME-3M melanoma = system: MALME-3M melanoma
NCI/ADR-RES ovarian = system: NCI/ADR-RES ovarian
A549 NSCLC = system: A549 NSCLC
UO-31 renal = system: UO-31 renal
NCI-H460 lung = system: NCI-H460 lung
UACC-257 melanoma = system: UACC-257 melanoma
786-0 renal = system: 786-0 renal
EKVX NSCLC = system: EKVX NSCLC
SK-OV-3 ovarian = system: SK-OV-3 ovarian
HOP-92 NSCLC = system: HOP-92 NSCLC

| Compound | GI50 (MALME-3M melanoma) | TGI (MALME-3M melanoma) | GI50 (NCI/ADR-RES ovarian) | TGI (NCI/ADR-RES ovarian) | GI50 (A549 NSCLC) | TGI (A549 NSCLC) | GI50 (UO-31 renal) | TGI (UO-31 renal) | GI50 (NCI-H460 lung) | TGI (NCI-H460 lung) | GI50 (UACC-257 melanoma) | TGI (UACC-257 melanoma) | GI50 (786-0 renal) | TGI (786-0 renal) | GI50 (EKVX NSCLC) | TGI (EKVX NSCLC) | GI50 (SK-OV-3 ovarian) | TGI (SK-OV-3 ovarian) | GI50 (HOP-92 NSCLC) | TGI (HOP-92 NSCLC) |
| --- | --- | --- | --- | --- | --- | --- | --- | --- | --- | --- | --- | --- | --- | --- | --- | --- | --- | --- | --- | --- |
| COc1ccc(C(=O)c2cc(C)c(OC)c(C)c2)c(OC)c1NC(C)=O | 1.17 µM | > 100 µM | 0.131 µM | 0.573 µM | 0.389 µM | > 100 µM | 0.167 µM | > 63.1 µM | 0.3 µM | > 33.9 µM | > 100 µM | > 100 µM | 0.0562 µM | > 100 µM | 0.251 µM | > 100 µM | 0.0674 µM | > 100 µM | 1.02 µM | > 100 µM |
| CS(=O)(=O)c1ccc(Nc2nc(N[C@H]3CCCC[C@H]3N)nc3cc[nH]c(=O)c23)cc1 | 1.73 µM | 4.64 µM | > 100 µM | > 100 µM | 3.87 µM | > 100 µM | 19.7 µM | 72.9 µM | 2.62 µM | 11.5 µM | 2.78 µM | 15.9 µM | 3.28 µM | 20.6 µM | 1.3 µM | 5.41 µM | 3.17 µM | > 100 µM | 2.04 µM | 23.6 µM |
| CN=C1C=CC(=C(c2ccc(N(C)C)cc2)c2ccc(N(C)C)cc2)C=C1 | 0.406 µM | 1.95 µM | 1.5 µM | 4.83 µM | 0.048 µM | 1.38 µM | 0.317 µM | 1.21 µM | 0.13 µM | 0.909 µM | 0.249 µM | 0.797 µM | 0.292 µM | 1.18 µM | 0.237 µM | 2.62 µM | 0.261 µM | 0.828 µM | 0.205 µM | 0.633 µM |
| CCN(CC)CCCC(C)Nc1cc(-c2cccc(OC(F)(F)F)c2)nc2ccc(N3CCCC3)cc12 (stereo unspecified) | 0.0679 µM | 32.6 µM | 0.0453 µM | 6.27 µM | 0.0677 µM | > 100 µM | 0.0699 µM | 44.3 µM | 0.0377 µM | 3.66 µM | 0.97 µM | 47.7 µM | 0.158 µM | 26.1 µM | 0.069 µM | > 100 µM | 0.0779 µM | 98.7 µM | 0.582 µM | 13.4 µM |
| [N-]=[N+]=NCCCn1c2c(c3ccc([N+](=O)[O-])cc3c1=O)C(=O)c1cc(Br)ccc1-2 | > 100 µM | > 100 µM | > 100 µM | > 100 µM | > 100 µM | > 100 µM | > 100 µM | > 100 µM | 8.35 µM | > 100 µM | > 100 µM | > 100 µM | 42.4 µM | > 100 µM | > 100 µM | > 100 µM | > 100 µM | > 100 µM | 37.7 µM | > 100 µM |
| S=C1Cc2c(-c3ccc(Br)cc3)cc(-c3ccccc3)nc2-c2ccccc2N1 |  | 7.41 µM |  | 4.43 µM |  | 8.23 µM |  | 4.77 µM |  | 2.66 µM |  | 9.74 µM | 0.632 µM | 1.79 µM |  | 4.67 µM |  | 3.27 µM |  | 4.41 µM |
| CN(C)CC1CC/C(=C\c2ccc3c(c2)OCO3)C1=O (stereo unspecified) |  | 18.3 µM |  | 12.4 µM |  | > 75.3 µM |  | 24.8 µM |  | 47.9 µM |  | 20.1 µM |  | 13 µM |  | 39.4 µM |  | > 57 µM |  | 33.1 µM |
| Cc1c(C#N)cccc1[C@@H](C)Nc1nnc(C)c2cnc(N3CCOCC3)cc12 | 21.4 µM | 58.5 µM | 35.5 µM | > 100 µM | 36.2 µM | > 100 µM | 15.1 µM | > 100 µM | 27.7 µM | > 100 µM | 26.4 µM | 94.5 µM | 13.7 µM | > 100 µM | 18.3 µM | > 100 µM | 31.3 µM | > 100 µM | 0.175 µM | 13.1 µM |
| O=C(Nc1ccccc1I(=O)=O)C1CCCCC1 | > 100 µM | > 100 µM | > 100 µM | > 100 µM | > 100 µM | > 100 µM | > 100 µM | > 100 µM | > 100 µM | > 100 µM | > 100 µM | > 100 µM | > 100 µM | > 100 µM | > 100 µM | > 100 µM | > 100 µM | > 100 µM | > 100 µM | > 100 µM |
| COc1ccccc1S(=O)(=O)Nc1ccc2c3c(cc(CCC(=O)NCCCCNc4cccc5c4C(=O)N(C4CCC(=O)NC4=O)C5=O)cc13)C(=O)N2C (stereo unspecified) | 0.0915 µM | 0.559 µM | > 100 µM | > 100 µM | 5.73 µM | > 100 µM | 2.4 µM | > 100 µM | > 100 µM | > 100 µM | > 100 µM | > 100 µM | 2.18 µM | > 100 µM | 18.1 µM | > 100 µM | 1.4 µM | > 100 µM | 0.0318 µM | 0.515 µM |
| O=C(O)/C(Cc1cn[nH]n1)=N\O |  | > 100 µM |  | > 100 µM |  | > 100 µM |  | > 100 µM |  | > 100 µM |  | > 100 µM |  | > 100 µM |  | > 100 µM |  | > 100 µM |  | > 100 µM |
| CC(C)OC(=S)Nc1ccc(Cl)c(/C=N/OC(C)(C)C)c1 |  | 34.2 µM |  | 16.8 µM |  | 40 µM |  | 27.2 µM |  | 33.1 µM |  | 37.4 µM |  | 34.3 µM |  | 36.3 µM |  | 41.6 µM |  | 25.5 µM |
| C=C1C(O)C2CC(C)(CO)C(=O)C2=C(CC(C)C)C12CC2 (stereo unspecified) | 28.3 µM | > 100 µM | > 100 µM | > 100 µM | 59.8 µM | > 100 µM | > 100 µM | > 100 µM | 67 µM | > 100 µM | 52.1 µM | > 100 µM | > 100 µM | > 100 µM | 69.5 µM | > 100 µM | > 100 µM | > 100 µM | 94.6 µM | > 100 µM |
